Test results reported in US5449661A, “Angiotensin converting enzyme inhibitor and method for preparing same” (The Calpis Food Industry Co., Ltd., priority 1992, dated 1995).
Residues, ends and D or L forms follow the SMILES beside them.

Molecular target: T1, angiotensin converting enzyme (ACE) (Oryctolagus cuniculus, UniProt P12822)
T1 sequence (P12822 34-1310): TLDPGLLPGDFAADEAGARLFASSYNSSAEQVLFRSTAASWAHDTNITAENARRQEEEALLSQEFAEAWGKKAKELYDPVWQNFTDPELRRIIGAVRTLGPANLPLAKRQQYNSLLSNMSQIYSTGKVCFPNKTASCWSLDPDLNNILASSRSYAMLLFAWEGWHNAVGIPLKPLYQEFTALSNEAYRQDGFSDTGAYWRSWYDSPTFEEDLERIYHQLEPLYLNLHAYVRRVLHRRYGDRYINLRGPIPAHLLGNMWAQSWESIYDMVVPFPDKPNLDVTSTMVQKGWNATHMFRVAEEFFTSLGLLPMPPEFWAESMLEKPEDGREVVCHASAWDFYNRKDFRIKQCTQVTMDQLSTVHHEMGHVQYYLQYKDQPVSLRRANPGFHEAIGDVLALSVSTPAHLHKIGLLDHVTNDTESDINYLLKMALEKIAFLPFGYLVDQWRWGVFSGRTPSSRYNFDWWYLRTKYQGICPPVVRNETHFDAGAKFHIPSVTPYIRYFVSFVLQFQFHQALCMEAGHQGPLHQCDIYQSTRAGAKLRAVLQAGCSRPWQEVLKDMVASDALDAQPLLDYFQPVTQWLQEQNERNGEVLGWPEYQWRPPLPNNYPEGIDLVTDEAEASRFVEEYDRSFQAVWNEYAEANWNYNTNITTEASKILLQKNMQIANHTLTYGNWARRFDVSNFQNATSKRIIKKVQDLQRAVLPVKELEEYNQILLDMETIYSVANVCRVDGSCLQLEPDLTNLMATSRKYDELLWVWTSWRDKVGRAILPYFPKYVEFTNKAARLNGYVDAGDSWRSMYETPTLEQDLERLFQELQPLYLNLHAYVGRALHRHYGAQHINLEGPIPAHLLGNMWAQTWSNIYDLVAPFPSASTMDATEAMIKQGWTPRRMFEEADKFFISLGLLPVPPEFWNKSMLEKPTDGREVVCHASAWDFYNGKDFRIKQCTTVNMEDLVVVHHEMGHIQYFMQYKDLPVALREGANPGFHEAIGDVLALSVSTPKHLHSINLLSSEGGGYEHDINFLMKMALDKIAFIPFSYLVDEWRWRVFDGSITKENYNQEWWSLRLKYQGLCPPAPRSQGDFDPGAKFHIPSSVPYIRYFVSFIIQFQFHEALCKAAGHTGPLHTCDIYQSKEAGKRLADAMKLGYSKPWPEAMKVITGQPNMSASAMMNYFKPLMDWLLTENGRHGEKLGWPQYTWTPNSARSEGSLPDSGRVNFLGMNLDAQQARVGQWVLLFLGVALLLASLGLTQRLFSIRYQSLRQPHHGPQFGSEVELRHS
Assay: ACE inhibiting activity (method of Cushman and Cheung, Hip-His-Leu substrate)
Details: read-out: IC50 (μM), ACE inhibiting activity of synthesized peptides; chemically synthesized peptides; measured in the same way as in Example 1
Experimental: 0.2 ml of hippuryl histidyl leucine (Hip-His-Leu, manufactured by SIGMA CHEMICAL CO.), adjusted to 5 mM with a 0.1M boric acid buffer containing 0.3M NaCl, pH 8.3, and 0.02 ml of an aqueous enzyme solution (ACE, 0.1 u/ml, manufactured by SIGMA CHEMICAL CO.) were added in this order as a substrate to the contents of each test tube, and reaction was carried out at 37° C. for 30 minutes. 0.25 ml of 1N hydrochloric acid was subsequently added to the contents of each test tube. After termination of the reaction, 1.7 ml of ethyl acetate was added to the contents of each tube, and agitation was continued for 20 seconds. After centrifugal separation at 3000 rpm for 10 minutes, and recovery of 1.4 ml of an ethyl acetate layer, the solvent was removed by heating at 120° for 40 minutes. After removing the solvent and adding 1 ml of distilled water, the absorption at 228 nm of the extracted hippuric acid was measured and adopted as the ACE inhibiting activity. The inhibiting ratio was calculated by the following equation:
Inhibiting Percentage=[(A-B)/(A-C)]×100(%)

Compound | IC50 [µM]
CC(C)C[C@H](N)C(=O)N[C@H](C(=O)N[C@@H](CCC(N)=O)C(=O)N[C@H](C(=O)N1CCC[C@H]1C(=O)N[C@H](C(=O)N[C@H](C(=O)N[C@H](C(=O)N1CCC[C@H]1C(=O)N1CCC[C@H]1C(=O)O)C(C)C)C(C)C)C(C)C)[C@@H](C)O)[C@@H](C)O (H-LTQTPVVVPP-OH) | 160
CC(C)C[C@H](N)C(=O)N[C@H](C(=O)N1CCC[C@H]1C(=O)N1CCC[C@H]1C(=O)O)C(C)C [Leu--Val--Pro--Pro, Leu-Val-Pro-Pro] (H-LVPP-OH) | 125
CC(C)C[C@H](NC(=O)[C@@H](N)Cc1ccccc1)C(=O)N[C@H](C(=O)N1CCC[C@H]1C(=O)N1CCC[C@H]1C(=O)O)C(C)C [Phe--Leu--Val--Pro--Pro, Phe-Leu-Val-Pro-Pro] (H-FLVPP-OH) | 12
CC(C)[C@H](N)C(=O)N[C@H](C(=O)N[C@H](C(=O)N1CCC[C@H]1C(=O)N1CCC[C@H]1C(=O)O)C(C)C)C(C)C [Val--Val--Val--Pro--Pro, Val-Val-Val-Pro-Pro] (H-VVVPP-OH) | 873

Continued, values first:

IC50 [µM] | Compound
627 | CC(C)[C@H](NC(=O)[C@@H]1CCCN1C(=O)[C@H](C)N)C(=O)N1CCC[C@H]1C(=O)N1CCC[C@H]1C(=O)O [Ala--Pro--Val--Pro--Pro, Ala-Pro-Val-Pro-Pro] (H-APVPP-OH)
181 | CC(C)[C@H](NC(=O)[C@@H]1CCCN1)C(=O)N1CCC[C@H]1C(=O)N1CCC[C@H]1C(=O)O [Pro--Val--Pro--Pro, Pro-Val-Pro-Pro] (H-PVPP-OH)
117 | CC(C)[C@H](NC(=O)[C@@H]1CCCN1)C(=O)N[C@H](C(=O)N[C@H](C(=O)N1CCC[C@H]1C(=O)N1CCC[C@H]1C(=O)O)C(C)C)C(C)C [Pro--Val--Val--Val--Pro--Pro, Pro-Val-Val-Val-Pro-Pro] (H-PVVVPP-OH)
285 | CC(C)[C@H](N)C(=O)N[C@H](C(=O)N1CCC[C@H]1C(=O)N1CCC[C@H]1C(=O)O)C(C)C [Val--Val--Pro--Pro, Val-Val-Pro-Pro] (H-VVPP-OH)
